The target in assay [1] is T1, Melanin-concentrating hormone receptor 2 (Homo sapiens, UniProt Q969V1). Briefly: Inhibition of 125I-[Phe13,Tyr19]-MCH binding to human MCH-R2 at 2uM.
In assay [2] the target is T2, Melanin-concentrating hormone receptor 1 (Homo sapiens, UniProt Q99705). Briefly: Stimulation of IP3-coupled mobilization of calcium in HEK293 cells expressing MCH-R1. The format is functional, cell-based.
Assay [3] deals with T2, Melanin-concentrating hormone receptor 1. Put plainly: Displacement of 125I-[Phe13,Tyr19]-MCH from human MCH-R1.
Assay [4] has the same target. Briefly: Inhibition of 125I-[Phe13,Tyr19]-MCH binding to human MCH-R1. The following applies: concentration not given here.
In assay [5] the target is T1, Melanin-concentrating hormone receptor 2. Put plainly: Displacement of 125I-[Phe13,Tyr19]-MCH from human MCH-R2. For orientation: In a radioligand displacement assay an active substance lowers the binding of a labelled ligand.

A value given as a limit tells only on which side of the number the result lay.

T2 sequence (Q99705 whole entry): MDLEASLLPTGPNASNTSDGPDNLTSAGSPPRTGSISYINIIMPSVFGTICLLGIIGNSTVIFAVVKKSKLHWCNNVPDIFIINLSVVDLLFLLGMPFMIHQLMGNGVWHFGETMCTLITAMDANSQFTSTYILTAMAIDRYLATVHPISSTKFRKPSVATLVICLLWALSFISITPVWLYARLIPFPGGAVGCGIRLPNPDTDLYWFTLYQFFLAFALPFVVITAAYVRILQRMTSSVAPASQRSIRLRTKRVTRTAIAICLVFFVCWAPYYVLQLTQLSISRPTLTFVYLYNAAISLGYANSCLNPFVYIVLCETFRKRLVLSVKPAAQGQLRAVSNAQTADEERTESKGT
T1 sequence (Q969V1 whole entry): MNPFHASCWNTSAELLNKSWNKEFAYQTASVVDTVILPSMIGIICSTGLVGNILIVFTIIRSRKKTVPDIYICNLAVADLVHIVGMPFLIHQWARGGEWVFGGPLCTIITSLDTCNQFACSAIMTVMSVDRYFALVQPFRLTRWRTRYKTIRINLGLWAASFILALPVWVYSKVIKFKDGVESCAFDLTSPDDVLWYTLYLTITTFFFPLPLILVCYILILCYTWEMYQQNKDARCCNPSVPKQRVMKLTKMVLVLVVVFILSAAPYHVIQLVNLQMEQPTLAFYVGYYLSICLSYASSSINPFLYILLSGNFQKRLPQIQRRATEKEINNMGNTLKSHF

By inhibition is commonly meant the drop in the measured response relative to a control, in per cent. The term EC50 denotes the concentration that produces a half-maximal response. The IC50 is the concentration at which inhibition is half-maximal. Read a low IC50 as inhibition by little substance. For `CCCc1cc(N)c2cc(NC(=O)/C=C/c3ccc(CC)cc3)ccc2n1`, the inhibition in assay [1] was below 50%. In addition, the EC50 in assay [2] turned out to be 160 nM. Moreover, the IC50 in assay [3] was determined as 1.4 nM.

For the compound `CCCc1cc(N)c2cc(NC(=O)/C=C/c3ccc(Cl)cc3Cl)ccc2n1`, in assay [1], the inhibition is below 50%. In assay [2], the 50% effective concentration (EC50) was determined as 904 nM. In assay [3], the half-maximal inhibitory concentration (IC50) stood at 6.6 nM.

`CCCc1cc(N)c2cc(NC(=O)CCc3ccc(C(F)(F)F)cc3)ccc2n1`: in assay [1], the inhibition is below 50%. Moreover, the EC50 in assay [2] was 120 nM. The same compound returned an IC50 in assay [3] of 13 nM.

`CCCc1ccc(/C=C/C(=O)Nc2ccc3nc(CCC)cc(N)c3c2)cc1`: the inhibition in assay [1] is below 50%. Further, in assay [2], the concentration giving a half-maximal response (EC50) stood at 3600 nM. Moreover, the concentration for half-maximal inhibition (IC50) in assay [3] was 4 nM.

`CCCc1cc(N)c2cc(NC(=O)/C=C/c3ccc(I)cc3)ccc2n1`: the inhibition in assay [1] was below 50%. Further, the half-maximal effective concentration (EC50) in assay [2] was 280 nM. The IC50 in assay [3] was determined as 2.3 nM.

In turn, `CCCc1cc(N)c2cc(NC(=O)/C=C/c3ccc(Cl)c(Cl)c3)ccc2n1` came in with an inhibition in assay [1] below 50%. Further, in assay [2], the EC50 worked out at 990 nM. This compound also registered an IC50 in assay [3] of 60 nM.

As to `CC(C)c1cc(N)c2cc(NC(=O)/C=C/c3ccc(C(F)(F)F)cc3)ccc2n1`, the inhibition in assay [1] is below 50%. In addition, in assay [2], the EC50 worked out at 160 nM. The same compound showed an IC50 in assay [3] of 2.1 nM.

Consider `CCCc1cc(N2CCC2)c2cc(NC(=O)/C=C/c3ccc(C(F)(F)F)cc3)ccc2n1`, for which the inhibition in assay [1] is below 50%. In addition, the EC50 in assay [2] was found to be 2500 nM. In assay [3], this compound showed an IC50 of 2.8 nM.

Compound `CCCc1cc(N)c2cc(NC(=O)/C=C/c3ccc(Cl)cc3)ccc2n1` registered an inhibition in assay [1] below 50%. In addition, the EC50 in assay [2] was found to be 96 nM. Besides, the IC50 in assay [3] was found to be 6 nM.

Consider `CCCc1cc(N)c2cc(NC(=O)/C=C/c3ccc(C)cc3)ccc2n1`, for which the inhibition in assay [1] was below 50%. Further, the EC50 in assay [2] worked out at 71 nM. Moreover, the 50% inhibitory concentration (IC50) in assay [3] was 9 nM.

In assay [1], `CCCc1cc(N)c2cc(NC(=O)/C=C/c3ccc(OC(C)=O)cc3)ccc2n1` came in with an inhibition below 50%. For the same compound, in assay [2], the concentration giving a half-maximal response (EC50) amounted to 630 nM. This compound also came in with an IC50 in assay [3] of 95 nM.

As for `CCCc1cc(NC)c2cc(NC(=O)/C=C/c3ccc(C(F)(F)F)cc3)ccc2n1`, in assay [1], the inhibition is below 50%. Moreover, the half-maximal effective concentration (EC50) in assay [2] stood at 150 nM. In addition, the IC50 in assay [3] was determined as 1.5 nM.

As for `CCCCc1cc(N)c2cc(NC(=O)/C=C/c3ccc(C(F)(F)F)cc3)ccc2n1`, the inhibition in assay [1] was below 50%. The EC50 in assay [2] was found to be 210 nM. The compound also showed a 50% inhibitory concentration (IC50) in assay [3] of 1.5 nM.

Regarding `CCCc1cc(N)c2cc(NC(=O)/C=C/c3ccc(SC)cc3)ccc2n1`, the inhibition in assay [1] is below 50%. Also, in assay [2], the 50% effective concentration (EC50) is 71 nM. Besides, in assay [3], the half-maximal inhibitory concentration (IC50) turned out to be 9 nM.

As for `CCCc1cc(N)c2cc(NC(=O)/C=C/c3ccccc3Cl)ccc2n1`, the inhibition in assay [1] was below 50%. The EC50 in assay [2] was 500 nM. Also, in assay [3], the IC50 was found to be 120 nM.

Compound `CCCc1cc(N)c2cc(NC(=O)/C=C/c3ccc([N+](=O)[O-])cc3)ccc2n1` displayed an inhibition in assay [1] below 50%. The concentration for a half-maximal effect (EC50) in assay [2] stood at 310 nM. In assay [3], the IC50 is 20 nM.

Turning to `CC(C)(C)c1cc(N)c2cc(NC(=O)/C=C/c3ccc(C(F)(F)F)cc3)ccc2n1`, the inhibition in assay [1] is below 50%. Besides, in assay [2], the EC50 is 29 nM. In assay [3], the IC50 came to 0.3 nM.

In the case of `CCCc1cc(N)c2cc(NC(=O)/C=C/c3ccc(F)cc3)ccc2n1`, the inhibition in assay [1] is below 50%. For the same compound, the concentration giving a half-maximal response (EC50) in assay [2] is 200 nM. The same compound had a half-inhibitory concentration (IC50) in assay [3] of 130 nM.

In turn, `CCCc1cc(N)c2cc(NCCCc3ccc(C(F)(F)F)cc3)ccc2n1` came in with an inhibition in assay [1] below 50%. Further, in assay [2], the 50% effective concentration (EC50) was found to be 1000 nM. Besides, the half-maximal inhibitory concentration (IC50) in assay [3] turned out to be 180 nM.

On to `CCCc1cc(NCC)c2cc(NC(=O)/C=C/c3ccc(C(F)(F)F)cc3)ccc2n1`, for which the inhibition in assay [1] is below 50%. Moreover, the concentration for a half-maximal effect (EC50) in assay [2] was 340 nM. This compound displayed an IC50 in assay [3] of 4.8 nM.

`Nc1cc(C2CCCC2)nc2ccc(NC(=O)/C=C/c3ccc(C(F)(F)F)cc3)cc12` yielded an inhibition in assay [1] below 50%. The EC50 in assay [2] is 68 nM. The compound also displayed an IC50 in assay [3] of 0.8 nM.

In turn, `CCCc1cc(OC)c2cc(NC(=O)/C=C/c3ccc(C(F)(F)F)cc3)ccc2n1` registered an inhibition in assay [1] below 50%. Further, the EC50 in assay [2] was found to be 360 nM. In assay [3], this compound gave a concentration for half-maximal inhibition (IC50) of 26 nM.

With `CCCc1cc(N(C)C)c2cc(NC(=O)/C=C/c3ccc(C(F)(F)F)cc3)ccc2n1`, the inhibition in assay [1] is below 50%. Also, the concentration giving a half-maximal response (EC50) in assay [2] came out at 300 nM. The IC50 in assay [3] was 43 nM.

Turning to `Nc1cc(C2CCCCC2)nc2ccc(NC(=O)/C=C/c3ccc(C(F)(F)F)cc3)cc12`, the inhibition in assay [1] was below 50%. In addition, the EC50 in assay [2] was 96 nM. Moreover, in assay [3], the half-maximal inhibitory concentration (IC50) came to 1.2 nM.

In assay [1], `CCCc1cc(N)c2cc(NC(=O)NCc3ccc(C(F)(F)F)cc3)ccc2n1` displayed an inhibition below 50%. For the same compound, the EC50 in assay [2] came to 380 nM. Further, in assay [3], the IC50 was found to be 38 nM.

For the compound `CCC(C)c1cc(N)c2cc(NC(=O)/C=C/c3ccc(C(F)(F)F)cc3)ccc2n1` (configuration not stated), in assay [1], the inhibition is below 50%. For the same compound, in assay [2], the half-maximal effective concentration (EC50) came out at 44 nM. Moreover, in assay [3], the IC50 was 0.3 nM.

`CCCc1cc(N)c2cc(NC(=O)/C=C/c3ccc(Br)cc3)ccc2n1` came in with an inhibition in assay [1] below 50%. Besides, in assay [2], the EC50 turned out to be 93 nM. In assay [3], the 50% inhibitory concentration (IC50) was 4 nM.

`CCCc1cc(N)c2cc(NC(=O)C3CCC(c4ccc(Cl)cc4)CC3)ccc2n1` (configuration not stated) gave an inhibition in assay [1] below 50%. Also, the EC50 in assay [2] was determined as 370 nM. In assay [3], this compound came in with a half-maximal inhibitory concentration (IC50) of 4.4 nM.

In assay [1], `CCCc1cc(N)c2cc(NC(=O)/C=C/c3ccc(C(C)(C)C)cc3)ccc2n1` had an inhibition below 50%. The EC50 in assay [2] turned out to be 910 nM. The compound also returned an IC50 in assay [3] of 22 nM.

For `Nc1cc(-c2ccccc2)nc2ccc(NC(=O)/C=C/c3ccc(Cl)cc3)cc12`, in assay [1], the inhibition was below 50%. Also, the half-maximal effective concentration (EC50) in assay [2] was found to be 6600 nM. In addition, the IC50 in assay [3] worked out at 18.5 nM.

Take `CCCc1cc(N)c2cc(NC(=O)c3ccccc3)ccc2n1`: the inhibition in assay [1] and in assay [4] was below 50% throughout.

In assay [1], `CCCCc1ccc(/C=C/C(=O)Nc2ccc3nc(CCC)cc(N)c3c2)cc1` came in with an inhibition below 50%. Moreover, the EC50 in assay [2] stood at 740 nM. Further, the 50% inhibitory concentration (IC50) in assay [3] came to 45 nM.

With `CCCc1cc(NC2CCC2)c2cc(NC(=O)/C=C/c3ccc(C(F)(F)F)cc3)ccc2n1`, the IC50 in assay [5] was determined as 960 nM; in assay [3], 18 nM. In addition, the concentration giving a half-maximal response (EC50) in assay [2] turned out to be 270 nM.

`CCc1cc(N)c2cc(NC(=O)/C=C/c3ccc(C(F)(F)F)cc3)ccc2n1` returned an inhibition in assay [1] below 50%. In assay [2], the EC50 worked out at 110 nM. This compound returned a concentration for half-maximal inhibition (IC50) in assay [3] of 1.2 nM.

For `CCCc1cc(N)c2cc(NC(=O)c3ccc(-c4ccc(Cl)cc4)cc3)ccc2n1`, the inhibition in assay [1] was below 50%. Besides, the EC50 in assay [2] was 75 nM. This compound registered an IC50 in assay [3] of 0.7 nM.

With `CC(C)(C)Cc1cc(N)c2cc(NC(=O)/C=C/c3ccc(C(F)(F)F)cc3)ccc2n1`, the inhibition in assay [1] was below 50%. The 50% effective concentration (EC50) in assay [2] was found to be 110 nM. In assay [3], this compound gave an IC50 of 5.8 nM.

In the case of `Nc1cc(C2CCC2)nc2ccc(NC(=O)/C=C/c3ccc(C(F)(F)F)cc3)cc12`, in assay [1], the inhibition was below 50%. In assay [2], the concentration giving a half-maximal response (EC50) is 250 nM. For the same compound, the concentration for half-maximal inhibition (IC50) in assay [3] was found to be 2 nM.

Consider `CCCc1cc(O)c2cc(NC(=O)/C=C/c3ccc(C(F)(F)F)cc3)ccc2n1`, for which the inhibition in assay [1] and in assay [4] was below 50% throughout.

The record behind these values is ChEMBL document CHEMBL1137266, “4-Aminoquinoline melanin-concentrating hormone 1-receptor (MCH1R) antagonists” (Bioorg Med Chem Lett, 2006).
